Test results published in patent US12655173B2, “Hybrid amide derivatives of amphotericin B” (priority 2020, dated 2026).
Values after ≈ are worked out from the molar mass of the structure shown.

Key:
A. thermomutatus = experiment: MIC against moulds; type: cell-based; conditions: for MIC A. thermomutatus: 6 isolates, AmB (AmBisome)
Solubility in D5W = conditions: solubility in D5W
CEA10 (clinical isolate) = experiment: MIC against azole and echinocandin resistant fungal strains (CLSI); type: cell-based, A. funigatus; conditions: read-out: MIC CEA10
Experimental: This experiment was performed following the standard CLSI protocol.

Row | SMILES | MIC A. thermomutatus (A. thermomutatus) [µM] | Fold of Increase w.r.t. AmB (Solubility in D5W) | MIC (CEA10 (clinical isolate)) [µM] | MIC (A. thermomutatus; Aspergillus thermomutatus, read-out: MIC A. thermomutatus) [µM]
1 | CC1C=CC=CC=CC=CC=CC=CC=CC(OC2OC(C)C(O)C(N)C2O)CC2OC(O)(CC(O)CC(O)C(O)CCC(O)CC(O)CC(=O)OC(C)C(C)C1O)CC(O)C2C(=O)NC(CO)(CO)CO (stereo not drawn) [Compound 2] | 2.1 (≈ 2.16 µg/mL) | 15.9 |  | 
2 | C[C@@H](c1ncncc1F)[C@](O)(Cn1cncn1)c1ccc(F)cc1F [Voriconazole] |  |  | 1.43 (≈ 0.5 µg/mL) | 
3 | CC1C=CC=CC=CC=CC=CC=CC=CC(OC2OC(C)C(O)C(N)C2O)CC2OC(O)(CC(O)CC(O)C(O)CCC(O)CC(O)CC(=O)OC(C)C(C)C1O)CC(O)C2C(=O)NC(CO)CO (stereo not drawn) [Compound 1] | 1.45 (≈ 1.45 µg/mL) | >314 |  | 
4 | C[C@@H]1[C@H](O)[C@@H](C)/C=C/C=C/C=C/C=C/C=C/C=C/C=C/[C@H](OC2O[C@H](C)[C@@H](O)[C@H](N)[C@@H]2O)C[C@@H]2O[C@](O)(C[C@@H](O)C[C@@H](O)[C@H](O)CC[C@@H](O)C[C@@H](O)CC(=O)O[C@H]1C)C[C@H](O)[C@H]2C(=O)O (stereo partly drawn) [AmB, Amphotericin B] |  |  |  | 0.6 (≈ 0.554 µg/mL)
